{"source": "paper PMC4279406", "about": "“Simultaneous targeting of PI3Kδ and a PI3Kδ-dependent MEK1/2-Erk1/2 pathway for therapy in pediatric B-cell acute lymphoblastic leukemia” (Oncotarget, 2014)", "tested_on": "PI3Kδ (M-CSF-stimulated THP-1 monocytes)", "assay": "M-CSF-induced Akt phosphorylation in THP-1 cells", "assay_type": "cell-based", "details": "at 10 nM; M-CSF 50 ng/ml", "method": "In fibroblasts, signals from the insulin-like growth factor 1 (IGF-1) receptor are mediated by PI3Kα, while lysophosphatidic acid (LPA) stimulates G-protein coupled receptor (GPCR) signals via PI3Kβ[26]. After being pre-incubated with X-370, murine embryonic fibroblasts cultured in serum-free medium were stimulated with IGF-1 or LPA. […] Either PI3Kδ or PI3Kγ can be activated in THP-1 monocytes dependent on the stimulating ligand, among which macrophage colony stimulating factor (M-CSF/CSF-1) activates RTK-coupled PI3Kδ, while monocyte chemoattractant protein-1 (MCP-1) activates PI3Kγ [24]. Accordingly, THP-1 cells cultured in serum-free medium were stimulated with MCP-1 or M-CSF in the presence of X-370 and phosphorylated Akt was measured.\nCell lysates were probed with indicated antibodies. The IC50 values were calculated based on relative band intensity measured with ImageQuant™ TL (GE Healthcare Life Sciences, Piscataway, NJ) (B). Data shown are mean values from three independent experiments. (C, D, E, F) X-370 blocked stimuli-triggered PI3Kδ activation. MEF cells and THP-1 were starved in serum-free medium for 12 h or 4 h respectively and X-370 were added for an additional 1 h treatment following stimulation of IGF-1 at 100 ng/ml for MEF cells (C), LPA at 10 μM for MEF cells (D), MCP-1 at 100ng/ml for THP-1 (E) and M-CSF at 50 ng/ml for THP-1 (F). […]", "data": [{"compound": "O=C(N1CCCC1)N1CCC(n2cnc3c(-n4c(C(F)F)nc5ccccc54)nc(N4CCOCC4)nc32)CC1", "note": "[X-370]", "values": [{"measurement": "M-CSF-induced Akt phosphorylation", "result": "completely blocked"}]}]}
